# Earlier results in patent US20260218136A1, “R[…], COMPOSITIONS, AND METHODS OF USE” (priority 2022, published 2026).
# pIC50: −log10 of the molar value.
# Conditions: target and test not given; stated in the description of the rapalog bridging factor
smiles,measurement,value
"CO[C@H]1[C@@H](O)[C@H](C)C[C@H](C)/C=C/C=C/C=C(\C)[C@@H](c2c[nH]c3c(C)cccc23)C[C@@H]2CC[C@@H](C)[C@@](O)(O2)C(=O)C(=O)N2CCCC[C@H]2C(=O)O[C@H]([C@H](C)C[C@@H]2CC[C@@H](O)[C@H](OC)C2)C[C@H](O)[C@H](C)/C=C(\C)[C@H]1O [AP21967, C-16-(S)-7-methylindolerapamycin]",pIC50,8.00
